Source: patent publication US20180051316A1, “DETECTION OF NUCLEIC ACID POLYMERASE CONFORMATIONAL CHANGES USING A NANOTUBE” (priority 2014, published 2018)
Where “and” joins values, the source holds several entries; their conditions need not be identical. Identical values can stand only once. Entries after “also recorded” stand apart in the source; their conditions may differ. Like-named read-outs stand apart in the source and are kept apart here. Marks after values point to notes of the source that are not given here.

Assays:
KF = biological target: T1, KF (Escherichia coli, UniProt P00582, C907S/D355A/E357A/L790C); format: biochemical; conditions: 100 μM analog, 25° C., 2 h
T1 construct: Single copies of the Klenow Fragment (KF) of DNA polymerase I were attached to single-walled carbon nanotube devices; made in house; host or cells: E. coli BL21(DE3)
T1 sequence (P00582 324-928 D355A/E357A/L790C/C907S): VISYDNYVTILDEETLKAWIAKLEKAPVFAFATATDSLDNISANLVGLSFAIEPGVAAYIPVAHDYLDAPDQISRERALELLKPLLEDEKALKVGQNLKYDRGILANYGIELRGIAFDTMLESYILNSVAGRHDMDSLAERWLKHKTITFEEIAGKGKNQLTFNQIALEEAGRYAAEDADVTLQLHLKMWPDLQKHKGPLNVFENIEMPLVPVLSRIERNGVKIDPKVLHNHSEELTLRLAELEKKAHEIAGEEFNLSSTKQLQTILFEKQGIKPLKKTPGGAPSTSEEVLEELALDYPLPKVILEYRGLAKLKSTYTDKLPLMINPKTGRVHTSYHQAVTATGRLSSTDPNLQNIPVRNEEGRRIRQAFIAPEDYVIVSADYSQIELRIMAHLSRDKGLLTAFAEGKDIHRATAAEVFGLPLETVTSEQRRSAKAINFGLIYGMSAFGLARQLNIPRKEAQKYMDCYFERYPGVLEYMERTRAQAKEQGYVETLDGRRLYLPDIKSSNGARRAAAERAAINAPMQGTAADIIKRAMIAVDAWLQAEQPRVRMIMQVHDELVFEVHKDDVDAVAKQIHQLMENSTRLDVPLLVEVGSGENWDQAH
Experimental: Polymerization products with dNTP analogs and the A/T incorporation template (FIG. 8A) or the G/C incorporation template (FIG. 8B) were electrophoresed on a 5% high-resolution agarose gel. […] After visualization, the image colors were inverted, then changed to black and white.
Positive control reactions contained KF (1 μM), dNTPs or dNTP analogs (100 μM), and A/T or G/C incorporation template-primer (5 μM) in 10 mM Tris, 50 mM NaCl, 10 mM MgCl2, 1 mM DTT, pH 7.9. Reactions to test dNTP analog incorporation contained 100 μM analog in place of its native dNTP, and negative control reactions omitted either the analog or its native dNTP. Reactions were kept at 25° C. for 2 h in a thermal cycler before electrophoresis on a 5% high resolution agarose gel (FIG. 8B).

[1] = biological target: T2, DNA polymerase I (Klenow Fragment) (Escherichia coli, UniProt P00582, C907S/D355A/E357A/L790C); format: biochemical; conditions: for frequency of ΔI(t) excursions relative to dGTP: complementary template-primer; for τopen events deviating from the single exponential fit / τopen events encompassed by single exponential fit: poly(dC)42; for τopen events encompassed by single exponential fit: more than 50 s of polymerization data; for time constant of second exponential fit to tail of τopen distribution: poly(dC)42 template (FIG. 3B); for k: k=(<τopen>+<τclosed>)^−1; for <τclosed> / <τopen>: native dNTP 10 μM, analog 100 μM, average ± standard deviation; for direction of ΔI(t) excursions: poly(dC)42 template; for direction of current spike ΔI per base incorporation: KF processing poly(dA)42
T2 construct: Single copies of the Klenow Fragment (KF) of DNA polymerase I were attached to single-walled carbon nanotube devices; made in house; host or cells: E. coli BL21(DE3)
T2 sequence (P00582 324-928 D355A/E357A/L790C/C907S): as above
Experimental: In embodiments, SWCNT-FETs are fabricated and functionalized with a single-cysteine variant of exonuclease-deficient KF (D355A/E357A/L790C/C907S). […] Attachment of KF to SWCNT-FETs is accomplished by soaking the devices in a solution of N-(1-pyrenyl)maleimide (1 mM in ethanol, 30 min), followed by incubation with KF (300 nM KF in a standard KF activity buffer of 20 mM Tris, 50 mM NaCl, 10 mM MgCl2, 100 μM TCEP, pH 8.0). […] Such devices are referred to simply as KF nanocircuits.
In embodiments, homopolymeric templates poly(dA)42, poly(dT)42, poly(dG)42, or poly(dC)42 mixed with complementary dNTP analogs are used for detecting conformational change of a polymerase, e.g., DNA polymerase. In embodiments, each template is fused to an M13 priming site and mixed with an M13 forward primer in a 1:1 stoichiometric ratio; for hybridization, the mixture is heated in a thermal cycler to 95° C. for 5 to 10 min followed by cooling to 65° C. then further cooling with a gradient of 5° C. every five min until reaching room temperature. In embodiments, KF nanocircuits are immersed in activity buffer with the annealed template-primer at 100 nM concentrations. Native or analog dNTPs are added to the buffer in excess, ensuring Vmax conditions for KF catalysis.
In embodiments, measurements consist of monitoring the source-drain current, I(t), through the SWCNT-FET while the attached KF molecule interacted with its surrounding environment. […] In embodiments, I(t) fluctuations are amplified, digitized at 100 kHz, and stored as uninterrupted, 600 s. Between measurements, the KF nanocircuits may be rinsed twice with activity buffer, incubated in buffer for 5 min, then rinsed twice with buffer before introducing another nucleotide and template-primer.
SWCNT FETs were fabricated and functionalized with a single cysteine variant of exonuclease-deficient KF. […] [20,21]
For each measurement, dNTPs were chosen to complement the homopolymeric templates poly(dA)42, poly(dT)42, poly(dG)42, and poly(dC)42. Each template was fused to an M13 priming site and mixed with an M13 forward primer in a 1:1 stoichiometric ratio; for hybridization, the mixture was heated to 95° C. for 5 to 10 minutes followed by cooling to room temperature. SWCNT FETs were immersed in a standard DNA Pol I activity buffer (20 mM Tris, 50 mM NaCl, 10 mM MgCl2, 100 μM TCEP, pH 8.0) with the template-primer hybrid at 100 nM concentration. Native or analog dNTPs were added to the buffer in excess, ensuring Vmax conditions for KF.
Measurements consisted of monitoring the source-drain current I(t) of a SWCNT FET while the attached KF molecule interacted with its surrounding environment.

KF active site = KF active site (Escherichia coli, UniProt P00582); conditions: inhibition of KF catalysis; cited from earlier work
KF active site, sequence (P00582 324-928): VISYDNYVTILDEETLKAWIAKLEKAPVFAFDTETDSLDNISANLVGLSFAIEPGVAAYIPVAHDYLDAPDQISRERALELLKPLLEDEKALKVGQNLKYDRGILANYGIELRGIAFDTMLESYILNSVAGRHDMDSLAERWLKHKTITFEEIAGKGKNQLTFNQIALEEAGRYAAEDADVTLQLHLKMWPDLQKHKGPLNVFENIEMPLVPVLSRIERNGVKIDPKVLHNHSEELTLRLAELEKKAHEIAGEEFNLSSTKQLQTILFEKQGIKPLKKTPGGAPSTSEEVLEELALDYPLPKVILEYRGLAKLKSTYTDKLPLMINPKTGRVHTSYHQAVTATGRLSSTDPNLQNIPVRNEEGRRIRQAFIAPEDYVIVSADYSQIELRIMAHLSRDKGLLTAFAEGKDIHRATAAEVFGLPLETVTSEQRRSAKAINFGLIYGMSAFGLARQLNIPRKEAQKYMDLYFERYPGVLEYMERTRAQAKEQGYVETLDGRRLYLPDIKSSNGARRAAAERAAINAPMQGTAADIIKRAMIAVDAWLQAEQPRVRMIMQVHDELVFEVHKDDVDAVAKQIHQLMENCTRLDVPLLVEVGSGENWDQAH

[2] = complementary homopolymeric template

## Nc1nc2c(ncn2[C@H]2C[C@H](O)[C@@H](COP(O)(=S)OP(=O)(O)OP(=O)(O)O)O2)c(=O)[nH]1 (stereo partly drawn) [α-thio-dGTP]
KF; G/C incorporation template
  incorporation into dsDNA, native counterpart omitted: incorporated opposite the template base C
[1]; [2]
  average KF processing rate k for dNTP incorporation: 15 s⁻¹
  increase of <τopen> relative to native dNTP: 56%
  τopen relative to native dNTP (times longer): approximately 2.5
[1]
  frequency of ΔI(t) excursions relative to dGTP: two to three times less frequently
  τopen events deviating from the single exponential fit: Approximately twenty-five percent
  τopen events encompassed by single exponential fit: ≈ 75%
  time constant of second exponential fit to tail of τopen distribution: 200 ms
[1]; template poly(dC)42
  k: 15.7 ± 0.7 s⁻¹
  <τclosed>: 0.21 ± 0.15 ms
  <τopen>: 63 ± 3 ms and 63.6 ± 2.8 ms

## Nc1ccn([C@H]2C[C@H](O)[C@@H](COP(=O)(O)OP(=O)(O)OP(=O)(O)O)O2)c(=O)n1 [dCTP]
[1]; template poly(dG)42
  k: 23.2 ± 3.2 s⁻¹
  <τclosed>: 0.35 ± 0.20 ms
  <τopen>: 42.8 ± 5.0 ms

## Nc1ncnc2c1ncn2[C@H]1C[C@H](O)[C@@H](COP(O)(=S)OP(=O)(O)OP(=O)(O)O)O1 (stereo partly drawn) [α-thio-dATP]
KF; A/T incorporation template
  incorporation into dsDNA, native counterpart omitted: incorporated opposite the template base T
[1]; 10 μM analog instead of 100 μM, poly(dT)42 template
  effect of lower analog concentration on DNA polymerization: did not affect DNA polymerization
[1]; [2]
  average KF processing rate k for dNTP incorporation: 7 s⁻¹
[1]; template poly(dT)42
  k: 6.8 ± 0.4 s⁻¹
  <τclosed>: 0.38 ± 0.21 ms
  <τopen>: 145 ms and 145.9 ± 8.4 ms

## Nc1nc(Cl)c2ncn([C@H]3C[C@H](O)[C@@H](COP(=O)(O)OP(=O)(O)OP(=O)(O)O)O3)c2n1 [6-Cl-2APTP, 2-amino-6-Cl-purine-2′-deoxyriboside-triphosphate]
KF; A/T incorporation template
  incorporation into dsDNA, native counterpart omitted: incorporated opposite the template base T
KF; G/C incorporation template
  incorporation into dsDNA, native counterpart omitted: incorporated opposite the template base C
[1]; [2]
  average KF processing rate k for dNTP incorporation: 20 s⁻¹
  enzyme closure time τclosed compared to native dNTPs: no difference
  rate of incorporation compared with native dNTPs: compared most favorably to the slowest rates observed for native dGTP incorporation; also recorded: more quickly than native dATP
  τopen relative to native dNTP (times longer): about twice as long
[1]
  frequency of ΔI(t) excursions relative to dGTP: two to three times less frequently
  τopen events deviating from the single exponential fit: Approximately twenty-five percent
  τopen events encompassed by single exponential fit: ≈ 75%
  direction of ΔI(t) excursions: Positive ΔI(t) excursions
  time constant of second exponential fit to tail of τopen distribution: 200 ms
[1]; complementary template-primers
  direction of ΔI(t) current fluctuations: positive current fluctuations
[1]; heterogeneous substrates, nucleotide mixtures (FIG. 5A, 5C)
  direction of current spikes: positive current spikes
[1]; opposite both poly(dC)42 and poly(dT)42 templates
  direction of ΔI(t) signals: inverted amplitude
[1]; opposite poly(dC)42
  rate of ΔI(t) excursions relative to dGTP: 80%
[1]; template poly(dC)42
  k: 19.7 ± 0.6 s⁻¹
  <τclosed>: 0.20 ± 0.12 ms
  <τopen>: 50.5 ± 1.4 ms
[1]; template poly(dC)42, listed as 6-Cl-dGTP
  <τopen>: 50 ± 1 ms

## Cc1cn([C@H]2C[C@H](O)[C@@H](COP(=O)(O)OP(=O)(O)OP(=O)(O)O)O2)c(=O)[nH]c1=O [dTTP, deoxythymidine triphosphate]
[1]
  direction of current spike ΔI per base incorporation: negative current spike ΔI<0
[1]; template poly(dA)42
  k: 14.3 ± 0.5 s⁻¹
  <τclosed>: 0.33 ± 0.12 ms
  <τopen>: 69.6 ± 2.3 ms

## Cc1cn([C@H]2C[C@H](O)[C@@H](COP(O)(=S)OP(=O)(O)OP(=O)(O)O)O2)c(=O)[nH]c1=O (stereo partly drawn) [α-thio-dTTP]
KF; A/T incorporation template
  incorporation into dsDNA, native counterpart omitted: incorporated opposite the template base A
[1]; [2]
  average KF processing rate k for dNTP incorporation: 7 s⁻¹
[1]; template poly(dA)42
  k: 6.6 ± 0.3 s⁻¹
  <τclosed>: 0.29 ± 0.13 ms
  <τopen>: 152.1 ± 6.6 ms

## Cc1cn(C2CC(O)C(COP(O)(=S)OP(=O)(O)OP(=O)(O)O)O2)c(=O)[nH]c1=O (single isomer, unassigned) [Rp diastereomer of α-thio-dTTP]
KF active site
  Ki: ~30 µM

## Nc1ccn([C@H]2C[C@H](O)[C@@H](COP(O)(=S)OP(=O)(O)OP(=O)(O)O)O2)c(=O)n1 (stereo partly drawn) [α-thio-dCTP]
KF; G/C incorporation template
  incorporation into dsDNA, native counterpart omitted: incorporated opposite the template base G
[1]; [2]
  average KF processing rate k for dNTP incorporation: 15 s⁻¹
[1]; template poly(dG)42
  k: 14.5 ± 1.0 s⁻¹
  <τclosed>: 0.33 ± 0.19 ms
  <τopen>: 68.8 ± 4.6 ms

## Nc1nc2c(ncn2[C@H]2C[C@H](O)[C@@H](COP(=O)(O)OP(=O)(O)OP(=O)(O)O)O2)c(=O)[nH]1 [dGTP]
[1]; [2]
  average KF processing rate k for dNTP incorporation: 41 s⁻¹
[1]
  τopen events encompassed by single exponential fit: > 90%
  direction of ΔI(t) excursions: negative ΔI(t) excursions
[1]; template poly(dC)42
  k: 24.3 ± 4.3 s⁻¹
  <τclosed>: 0.40 ± 0.20 ms
  <τopen>: 40.8 ± 6.0 ms

## Nc1ncnc2c1ncn2[C@H]1C[C@H](O)[C@@H](COP(=O)(O)OP(=O)(O)OP(=O)(O)O)O1 [dATP]
[1]; template poly(dT)42
  k: 16.8 ± 0.4 s⁻¹
  <τclosed>: 0.34 ± 0.18 ms
  <τopen>: 58.9 ± 1.2 ms

## Nc1ccn([C@H]2C[C@H](O)[C@@H](COP(=O)(O)OP(=O)(O)OP(=O)(O)O)O2)c(=S)n1 [2-thio-dCTP]
KF; G/C incorporation template
  incorporation into dsDNA, native counterpart omitted: incorporated opposite the template base G
[1]; [2]
  enzyme closure time τclosed compared to native dNTPs: no difference
  rate of incorporation compared with native dNTPs: slightly faster; also recorded: approximately the same
[1]; template poly(dG)42
  k: 30.6 ± 1.2^b 1/s
  <τclosed>: 0.41 ± 0.15^b ms
  <τopen>: 32.3 ± 1.1^b ms

## Cc1cn([C@H]2C[C@H](O)[C@@H](COP(=O)(O)OP(=O)(O)OP(=O)(O)O)O2)c(=S)[nH]c1=O [2-thio-dTTP, 2-thio-2′-deoxythimidine-5′-triphosphate]
KF; A/T incorporation template
  incorporation into dsDNA, native counterpart omitted: incorporated opposite the template base A
[1]
  direction of current spike ΔI per base incorporation: positive current spikes ΔI>0
[1]; [2]
  average KF processing rate k for dNTP incorporation: 16 s⁻¹
  enzyme closure time τclosed compared to native dNTPs: no difference
  rate of incorporation compared with native dNTPs: slightly faster; also recorded: approximately the same
[1]; template poly(dA)42
  k: 16.3 ± 0.9^b 1/s
  <τclosed>: 0.23 ± 0.14^b ms
  <τopen>: 61.1 ± 3.2^b ms
